Reference: patent publication US9988381B2, “Five-member-heterocycle fused pyridine compounds, method of producing the same, and use thereof” (SHANGHAI INSTITUTE OF MATERIA MEDICA, CHINESE ACADEMY OF …, priority 2013, dated 2018)
Like-named read-outs stand apart in the source and are kept apart here.

Key:
[1] = target: T1, c-Met kinase domain recombinant protein (Homo sapiens, UniProt P08581); test: biochemical; conditions: read-out: Inhibition rate at 10 μM (%)
T1 construct: 50 μL diluted solution of c-Met kinase domain recombinant protein in reaction buffer was added to initiate the reaction
T1 sequence (P08581 1078-1345 limits assumed): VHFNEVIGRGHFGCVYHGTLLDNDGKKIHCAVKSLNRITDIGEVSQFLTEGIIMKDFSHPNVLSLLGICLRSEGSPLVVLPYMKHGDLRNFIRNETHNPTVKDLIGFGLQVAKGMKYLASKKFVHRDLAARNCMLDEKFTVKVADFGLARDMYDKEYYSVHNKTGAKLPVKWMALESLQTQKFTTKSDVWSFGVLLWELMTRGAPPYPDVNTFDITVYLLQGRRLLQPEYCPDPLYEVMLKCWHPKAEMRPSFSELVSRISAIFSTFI
Outline: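 Recombinant c-Met kinase domain phosphorylated immobilised Poly(Glu,Tyr)4:1 for 1 h at 37 °C in 50 mM HEPES pH 7.4, 50 mM MgCl2, 0.5 mM MnCl2, 0.2 mM Na3VO4, 1 mM DTT with ATP. Product measured by anti-phosphotyrosine PY99 ELISA (HRP, 490 nm), giving percent inhibition; ATP-free wells served as control.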

[2] = target: T1, c-Met kinase domain recombinant protein; test: biochemical; conditions: for inhibition at 0.1 µM: read-out: Average inhibition rate at 0.1 μM (%); for inhibition at 1 µM: read-out: Average inhibition rate at 1 μM (%); for inhibition at 10 µM: read-out: Average inhibition rate at 10 μM (%)
Outline: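 IC50 came from a four-parameter fit of inhibition rates measured by anti-phosphotyrosine (PY99/HRP) ELISA at 490 nm. The reaction ran 1 hour at 37° C with 5 μM ATP, c-Met kinase domain protein and Poly(Glu,Tyr)4:1-coated wells, in HEPES pH 7.4 buffer containing MgCl2, MnCl2, Na3VO4 and DTT.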

MKN45 cell = test: Test III: growth inhibition of gastric tumor cell MKN45 (SRB); type: cell-based; conditions: Homo sapiens; for inhibition at 0.2 µM: MKN-45, read-out: Cell proliferation inhibition rate at 200 nM (%), MKN45, 200 nM
Method: Assays on the growth inhibition of the compounds against gastric tumor cell MKN45, non-small cell carcinoma EBC-1 cell (both are MET persistent activated cell lines due to MET gene amplification, and are Met dependent tumor cell lines, MKN45 cell was purchased from JCRB, Japan, EBC-1 cell was purchased from ATCC, USA) were detected using sulforhodamine B (SRB) staining. […] After incubation with compound for 72 hours, the incubation was terminated, adherent cells were retained and medium was discarded, 10% (w/v) trichloroacetic acid (100 μL pre well) was added, the cells were fixed at 4° C. for 1 hour, then rinsed with distilled water for 5 times, after dried at room temperature, SRB solution (4 mg/mL, dissolved in 1% glacial acetic acid) was added at 100 μL per well, incubated and stained at room temperature for 15 minutes, then rinsed with 1% glacial acetic acid for 5 times to remove any unbound SRB, dried at room temperature, then 10 mM Tris solution was added at 100 μL per well, the optical density (OD) value at 515 nm was measured using VERSMax microplate reader.
Experiments were conducted in duplicates. IC50 value was calculated by fitting the data for a four parameter fit using inhibition curve, the results are shown below in Table 2.

BaF3/TPR-Met cell = test: Test III: growth inhibition of engineered BaF3/TPR-Met cells (MTT); type: cell-based; conditions: Mus musculus, BaF3, 72 h
Method: Assays on the growth inhibition of the compounds against engineered BaF3/TPR-Met cell (engineered cell line having TPR-Met fusion protein stably expressed in cytoplasm, persistently activated, Met dependent sensitive cell line; BaF3 cell was purchased from DSMZ, German) were detected using microculture tetrozolium (MTT) staining. A certain amount of BaF3/TPR-Met cells at log phase were inoculated into 96-well culture plate at 90 µL per well, incubated overnight and then 10 μL compound at various concentrations or vehicle control (normal saline) was added, each concentration was tested in triplicate. After incubation with compound for 72 hours, the incubation was terminated, MTT solution (5 mg/mL) was added at 20 μL per well, incubated at 37° C. for 4 hours, then 100 μL triplet solution (10% SDS−5% isobutanol−0.01M HCl) was added, incubated overnight at 37° C., OD value was measured at 570 nm. […] Experiments were conducted in duplicates.

[3] = test system: human malignant glioblastoma cell U87MG xenograft; test: Test V: human malignant glioblastoma U87MG xenograft in nude mice; type: in vivo
Method: U87-MG cells were expanded by in vitro culture, cells at log phase were harvested and resuspended in EMEM, adjusted to a cell density of 2.8×10^7/mL, then implanted subcutaneously in the right axilla of nude mice.
During the trial, tumor diameters and animal weights were measured twice a week. Tumor Volume (TV) was calculated by the following equation: TV=1/2×a×b^2, wherein a, b represent length and width, respectively. Based on the measurement, Relative Tumor Volume (RTV) was calculated by the following equation: RTV=Vt/V0, wherein V0 is the tumor volume measured when divided for administration (i.e., d0), Vt is the tumor volume measured at each timepoint.

[4] = MKN-45, read-out: Cell proliferation inhibition rate at 1 μM (%), MKN45, 1 μM, 72 hours
[5] = 50 mg/kg po qd/14, end of administration

Cn1cc(-c2cnc3cnn(S(=O)(=O)c4cnc5ccc(-c6ccsc6)cn45)c3c2)cn1 [Example 72, 1-{[6-(3-thiophene)-imidazo[1,2-a]pyridine]-3-sulfonyl}-6-[(1-methyl)-4-pyrazolyl]-1-H-pyrazolo[4,3-b]pyridine] gave an inhibition at 10 µM [1] of 80.9%, an IC50 [2] of 0.04 ± 0.04 nM and an inhibition at 0.1 µM [2] of 70.1%. The inhibition at 1 µM [2] was 80.3%, the inhibition at 10 µM [2] was 76.5% and the inhibition at 1 µM (MKN45 cell; MKN-45, 72 h, read-out: Cell proliferation inhibition rate at 1 μM (%)) was 72.8%.

Cn1cc(-c2cnc3cnn(S(=O)(=O)c4cnc5ccc(-c6ccc(F)cc6)cn45)c3c2)cn1 [Example 81, 1-{[6-(4-fluorophenyl)-imidazo[1,2-a]pyridine]-3-sulfonyl}-6-[(1-methyl)-4-pyrazolyl]-1-H-pyrazolo[4,3-b]pyridine] showed an inhibition at 10 µM [1] of over 68.7%, an inhibition at 0.1 µM [2] of 72.9% and an inhibition at 1 µM [2] of 73.6%. The inhibition at 10 µM [2] was 80.2% and the inhibition at 1 µM (MKN45 cell; [4]) was 24.7%.

CNC(=O)c1ccc(-c2ccc3ncc(S(=O)(=O)n4ncc5ncc(-c6cnn(CCN(C)C)c6)cc54)n3c2)cc1F [Example 102, 1-{(6-(3-fluoro-4-methylaminocarbonylphenyl)-imidazo[1,2-a]pyridine)-3-sulfonyl}-6-[(2-dimethylaminoethyl)-4-pyrazolyl]-1-H-pyrazolo[4,3-b]pyridine] gave an inhibition at 10 µM [1] of over 65.5%, an inhibition at 0.1 µM [2] of 73.7% and an inhibition at 1 µM [2] of 85.3%. The inhibition at 10 µM [2] was 95.4%, the inhibition at 0.2 µM (MKN45 cell; 72 hours) was 63.8% and the inhibition at 1 µM (MKN45 cell; [4]) was 67.9%.

Cn1cc(-c2cnc3cnn(S(=O)(=O)c4cnc5ccccn45)c3c2)cn1 [Compound 19, 1-(imidazo[1,2-a]pyridine-3-sulfonyl)-6-[(1-methyl)-4-pyrazolyl]-1-H-pyrazolo[4,3-b]pyridine] was tested, and the inhibition at 10 µM [1] was 59.3%, the IC50 [2] was 7.8 ± 0.8 nM and the inhibition at 0.1 µM [2] was 59.2%. It also gave an inhibition at 1 µM [2] of 53.5%, an inhibition at 10 µM [2] of 59.3% and an inhibition at 0.2 µM (BaF3/TPR-Met cell; read-out: Cell proliferation inhibition rate at 200 nM (%)) of 91.8%. For the same molecule, the inhibition at 1 µM (BaF3/TPR-Met cell; read-out: Cell proliferation inhibition rate at 1 μM (%)) was 95.6%, the “state and survival of mice during the administration period” value ([3]; 50 mg/kg daily for 14 days) was “in good state and were survived” and the “antitumor activity (in words)” value ([3]; 50 mg/kg daily, d14) was “favorable antitumor activity”. The “RTV (mean ± SE)” value [3, 5] was 77.0 ± 5.2, the “TV (mm^3, mean ± SE) d21” value [3, 5] was 140 ± 20 mm^3 and the “Weight (g) d21” value [3, 5] was 24.5 g. The “GI (%)” value ([3]; 50 mg/kg po qd/14, end of the trial) was 102.41% and the “T/C (%)” value ([3]; 50 mg/kg po qd/14, end of the trial (d14)) was 7.29%.

Molecule Cn1cc(-c2cnc3cnn(S(=O)(=O)c4cnc5ccc(-c6cnn(C7CCN(C(=O)OC(C)(C)C)CC7)c6)cn45)c3c2)cn1 [Example 76, 1-{(6-{{1-[(1-t-butoxycarbonyl)-4-piperidinyl]}-4-pyrazolyl}-imidazo[1,2-a]pyridine)-3-sulfonyl}-6-[(1-methyl)-4-pyrazolyl]-1-H-pyrazolo[4,3-b]pyridine] has an inhibition at 10 µM [1] of over 76.3%, an inhibition at 0.1 µM [2] of 78% and an inhibition at 1 µM [2] of 75.5%. For the same molecule, the inhibition at 10 µM [2] was 78.3% and the inhibition at 1 µM (MKN45 cell; [4]) was 14.9%.

CN(C)C(=O)c1ccc(-c2ccc3ncc(S(=O)(=O)n4ncc5ncc(-c6cnn(C)c6)cc54)n3c2)cc1 [Example 73, 1-{[6-(4-dimethylaminocarbonylphenyl)-imidazo[1,2-a]pyridine]-3-sulfonyl}-6-[(1-methyl)-4-pyrazolyl]-1-H-pyrazolo[4,3-b]pyridine] gave an inhibition at 10 µM [1] of 59.6%, an inhibition at 0.1 µM [2] of 78% and an inhibition at 1 µM [2] of 72.8%. For the same molecule, the inhibition at 10 µM [2] was 76.9% and the inhibition at 1 µM (MKN45 cell; [4]) was 14.4%.

Work on Cn1cc(-c2cnc3cnn(S(=O)(=O)c4cnc5ccc(-c6ccc(F)nc6)cn45)c3c2)cn1 [Example 99, 1-{[6-(2-fluoro-5-pyridinyl)-imidazo[1,2-a]pyridine]-3-sulfonyl}-6-[(1-methyl)-4-pyrazolyl]-1-H-pyrazolo[4,3-b]pyridine] yielded an inhibition at 10 µM [1] of over 73.3%, an inhibition at 0.1 µM [2] of 55.5% and an inhibition at 1 µM [2] of 66.2%. The inhibition at 10 µM [2] was 71.8%, the inhibition at 0.2 µM (MKN45 cell; 72 hours) was 48.5% and the inhibition at 1 µM (MKN45 cell; [4]) was 67.9%.
